Measurements taken from patent US5616573A, “Glucocorticoids” (Schering Aktiengesellschaft, priority 1993, dated 1997).
*1 amine or outer side, *2 acyl side, *3 side chain or, on linkers, in order; H or OH if unused. Where a SMILES comes first, the peptide text is derived from it. [ ]: non-standard residue; d: D form. The star is where a group is joined. Methylprednisolone(17-OCOEt) = CCC(=O)O[C@]1(C(=O)CO*)CC[C@H]2[C@@H]3C[C@H](C)C4=CC(=O)C=C[C@]4(C)[C@H]3[C@@H](O)C[C@@]21C; X2 = C[C@@H]1C[C@H]2[C@@H]3C[C@H](F)C4=CC(=O)C=C[C@]4(C)[C@H]3[C@@H](O)C[C@]2(C)[C@H]1C(=O)CO*; Phthalimidoacetyl = O=C1c2ccccc2C(=O)N1CC(=O)*; Diphenylacetyl = O=C(C(c1ccccc1)c1ccccc1)*; Fmoc = O=C(OCC1c2ccccc2-c2ccccc21)*; 2Naphthoyl = O=C(c1ccc2ccccc2c1)*; X6 = O=C(CCn1c2ccccc2c2ccccc21)*; X7 = O=S(=O)(c1ccc(Cl)cc1)*; X8 = c1ccc(N(c2ccccc2)*)cc1; MeOSuc = COC(=O)CCC(=O)*; Cbz = O=C(OCc1ccccc1)*; X4 = O=C(C=Cc1ccccc1)*; Boc = CC(C)(C)OC(=O)*; Aib = CC(C)(N)C(=O)O; CO = O=C([*:1])[*:2]; CH2Cl = ClC*

Columns and labels:
rat ear = assay: Local antiinflammatory action: modified rat ear test according to Tonelli (croton oil); assay type: in vivo; settings: topical, * = significant (p < 0.05); for Edema [% inhibition]: ear weight, 16 hours after irritant; for Infiltration [% inhibition]: granulocytic infiltrate (myeloperoxidase and leukocyte-elastase), 16 hours
Procedure: The antiinflammatory activity of the corticoid-21-oligopeptide esters is performed in a modified rat ear test according to Tonelli. The modifications are based on changes of irritant solution (4% croton oil, 10% DMSO in ethanol), the type of administration (application of the solution with pipette) and the evaluation of the test 16 hours after administration of the irritant solution. At this time, both the inhibition of the edema by measuring the ear weight and the inhibition of the granulocytic infiltrate by measuring the granulocyte marker myeloperoxidase and leukocyte-elastase in the ear homogenate can be determined. The group size was 6 animals in each case.

Esterases of Rat Skin = assay: Cleavage in the Homogenate of Normal Rat Skin (unspecific cleavage by esterases of rat skin); assay type: in vitro ADME; settings: percent of hydrolysis rate of 6α-methylprednisolone-17-propionate-21-acetate; approximately 100 μmol/l, pH=7.4, 37° C.
Procedure: (§1) The homogenate of the skin of male rats (0.1 mol/l of phosphate buffer, pH=7.4) is centrifuged for 20 minutes at 10,000 g. The supernatant is adjusted in phosphate buffer to a protein concentration of 3 mg/ml. The test substances in 20 μl of ethanol are added to 1 ml of this homogenate. The final concentration of the corticoid derivatives is approximately 100 μmol/l. The incubation takes place for different periods at 37° C. At the end of incubation, the samples are extracted three times with 3 ml of chloroform. The combined extracts are evaporated to dryness under nitrogen and taken up with 100 μl of ethanol. The ethanolic solutions are mixed with the same volume of water and the saponification products are separated by HPLC (RP 18, acetonitrile/water-gradient, detection 240 nm). The relative hydrolysis rate is indicated in percent of the hydrolysis rate of the 6α-methylprednisolone-17-propionate-21-acetate.

Leukocyte Elastase = target: T1, Leukocyte Elastase (Homo sapiens, UniProt P08246); assay: Cleavage of Glucocorticoid-21-Oligopeptide Esters by Leukocyte Elastase in the lysate of human neutrophilic granulocytes; assay type: biochemical; settings: for Relative Hydrolysis Rate [%]: lysate of human neutrophilic granulocytes, 10^6 cells per ml, 1 hour at 37° C., Fmoc-Ala-Ala-Pro-Val-O-MPP is used as reference
T1 construct: also pure human sputum elastase (Elastin Products)
T1 sequence (P08246 30-267): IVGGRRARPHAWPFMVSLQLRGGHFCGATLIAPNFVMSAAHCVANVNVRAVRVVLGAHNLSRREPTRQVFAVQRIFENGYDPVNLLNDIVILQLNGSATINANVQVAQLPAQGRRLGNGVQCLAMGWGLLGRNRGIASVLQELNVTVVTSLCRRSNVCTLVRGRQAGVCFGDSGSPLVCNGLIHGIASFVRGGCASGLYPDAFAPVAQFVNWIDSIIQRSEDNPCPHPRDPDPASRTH
Procedure: as §1
Polymorphonuclear granulocytes are isolated from donor blood. The cells are lysed in a density of 10^6 cells per ml. 1 ml each of the lysate is mixed with 20 μl of ethanolic corticoid solution (5 mmol/l) After 1 hour of incubation at 37° C., the samples are extracted three times with 3 ml of chloroform and worked up as described above for HPLC analysis. The cleavage of the prodrugs according to the invention can be inhibited under these test conditions by the addition of the specific elastase inhibitor MeO-succinyl-Ala-Ala-Pro-Val-chloromethylketone to 90%. Furthermore, the compounds are also hydrolyzed by pure human sputum-elastase (elastin products).

[1] = concentration 0.003 (unit not given)
[2] = concentration 0.03 (unit not given)
[3] = concentration 0.3 (unit not given)

In the case of `CCC(=O)O[C@]1(C(=O)COC(C)=O)CC[C@H]2[C@@H]3C[C@H](C)C4=CC(=O)C=C[C@]4(C)[C@H]3[C@@H](O)C[C@@]21C` [6α-methylprednisolone-17-propionate-21-acetate, reference compound], the “Edema [% inhibition]” value (rat ear; [1]) is reported as 44%, the “Infiltration [% inhibition]” value (rat ear; [1]) is reported as 12% and the “Edema [% inhibition]” value (rat ear; [2]) is reported as 62%. The “Infiltration [% inhibition]” value (rat ear; [2]) was 45%, the “Edema [% inhibition]” value (rat ear; [3]) was 67% and the “Infiltration [% inhibition]” value (rat ear; [3]) was 78%. For the same molecule, the “Relative Hydrolysis Rate [%]” value (Esterases of Rat Skin) was 100%.
For `CCC(=O)O[C@]1(C(=O)COC(=O)[C@@H](NC(=O)[C@@H]2CCCN2C(=O)[C@H](C)NC(=O)[C@H](C)NC(=O)OCc2ccccc2)C(C)C)CC[C@H]2[C@@H]3C[C@H](C)C4=CC(=O)C=C[C@]4(C)[C@H]3[C@@H](O)C[C@@]21C` [Example 5, N-(N-(N-(N-(Phenylmethoxycarbonyl)-L-alanyl)-L-alanyl)-L-prolyl) -L-valine [11β21-dihydroxy-3,20-dioxo-6α-methyl-17-propionyloxy-pregna-1,4-dien-21-yl] ester] (Cbz-AAPV-{Methylprednisolone(17-OCOEt)}), the “Relative Hydrolysis Rate [%]” value (Leukocyte Elastase) was 160-230%.
For `CCC(=O)O[C@]1(C(=O)COC(=O)[C@@H](NC(=O)[C@@H]2CCCN2C(=O)[C@H](C)NC(=O)[C@H](C)NC(=O)C(c2ccccc2)c2ccccc2)C(C)C)CC[C@H]2[C@@H]3C[C@H](C)C4=CC(=O)C=C[C@]4(C)[C@H]3[C@@H](O)C[C@@]21C` [Example 10, N-(N-(N-(N-((Diphenylmethyl)carbonyl)-L-alanyl)-L-alanyl)-L -prolyl)-L-valine [11β,21-dihydroxy-3,20-dioxo-6α-methyl-17-propionyloxy-pregna-1,4-dien-21-yl] ester] (Diphenylacetyl-AAPV-{Methylprednisolone(17-OCOEt)}), the “Relative Hydrolysis Rate [%]” value (Esterases of Rat Skin) was 6%.
`CCC(=O)O[C@]1(C(=O)COC(=O)[C@@H](NC(=O)[C@@H]2CCCN2C(=O)[C@H](C)NC(=O)[C@H](C)NC(=O)N(c2ccccc2)c2ccccc2)C(C)C)CC[C@H]2[C@@H]3C[C@H](C)C4=CC(=O)C=C[C@]4(C)[C@H]3[C@@H](O)C[C@@]21C` [Example 11, N-(N-(N-(N-(Diphenylcarbamoyl)-L-alanyl)-L-alanyl)-L-prolyl)-L-valine [11β,21-dihydroxy-3,20-dioxo-6α-methyl-17-propionyloxy-pregna-1,4-dien-21-yl] ester] ({X8-CO}-AAPV-{Methylprednisolone(17-OCOEt)}) was tested, and the “Relative Hydrolysis Rate [%]” value (Esterases of Rat Skin) was 14%.
For `CCC(=O)O[C@]1(C(=O)COC(=O)[C@@H](NC(=O)[C@@H]2CCCN2C(=O)[C@H](C)NC(=O)[C@H](C)NC(=O)c2ccc3ccccc3c2)C(C)C)CC[C@H]2[C@@H]3C[C@H](C)C4=CC(=O)C=C[C@]4(C)[C@H]3[C@@H](O)C[C@@]21C` [Example 12, N-(N-(N-(N-(2-Naphthoyl)-L-alanyl)-L-alanyl)-L-prolyl)-L-valine [11β,21-dihydroxy-3,20-dioxo-6α-methyl-17-propionyloxy-pregna-1,4-dien-21-yl] ester] (2Naphthoyl-AAPV-{Methylprednisolone(17-OCOEt)}), the “Relative Hydrolysis Rate [%]” value (Esterases of Rat Skin) was 4%.
`CCC(=O)O[C@]1(C(=O)COC(=O)[C@@H](NC(=O)[C@@H]2CCCN2C(=O)[C@H](C)NC(=O)[C@H](C)NC(=O)C=Cc2ccccc2)C(C)C)CC[C@H]2[C@@H]3C[C@H](C)C4=CC(=O)C=C[C@]4(C)[C@H]3[C@@H](O)C[C@@]21C` [Example 13] (X4-AAPV-{Methylprednisolone(17-OCOEt)}) was tested, and the “Relative Hydrolysis Rate [%]” value (Esterases of Rat Skin) was 5%.
`CCC(=O)O[C@]1(C(=O)COC(=O)[C@@H](NC(=O)[C@@H]2CCCN2C(=O)[C@H](C)NC(=O)[C@H](C)NS(=O)(=O)c2ccc(Cl)cc2)C(C)C)CC[C@H]2[C@@H]3C[C@H](C)C4=CC(=O)C=C[C@]4(C)[C@H]3[C@@H](O)C[C@@]21C` [Example 14, N-(N-(N-(N-(4-Chlorobenzenesulfonyl)-L-alanyl)-L-alanyl)-L -prolyl)-L-valine [11β,21-dihydroxy-3,20-dioxo-6α-methyl-17-propionyloxy-pregna-1,4-dien-21-yl] ester] (X7-AAPV-{Methylprednisolone(17-OCOEt)}) was tested, and the “Relative Hydrolysis Rate [%]” value (Esterases of Rat Skin) was 6%.
In the case of `CCC(=O)O[C@]1(C(=O)COC(=O)[C@@H](NC(=O)[C@@H]2CCCN2C(=O)[C@H](C)NC(=O)[C@H](C)NC(=O)CCn2c3ccccc3c3ccccc32)C(C)C)CC[C@H]2[C@@H]3C[C@H](C)C4=CC(=O)C=C[C@]4(C)[C@H]3[C@@H](O)C[C@@]21C` [Example 16, N-(N-(N-(N-(3-(Carbazol-9-yl)-propionyl)-L-alanyl)-L-alanyl)-L -prolyl)-L-valine [11β,21-dihydroxy-3,20-dioxo-6α-methyl-17-propionyloxy-pregna-1,4-dien-21-yl] ester] (X6-AAPV-{Methylprednisolone(17-OCOEt)}), the “Relative Hydrolysis Rate [%]” value (Esterases of Rat Skin) is reported as 3%.
`CCC(=O)O[C@]1(C(=O)COC(=O)[C@@H](NC(=O)[C@@H]2CCCN2C(=O)[C@H](C)NC(=O)[C@H](C)NC(=O)CN2C(=O)c3ccccc3C2=O)C(C)C)CC[C@H]2[C@@H]3C[C@H](C)C4=CC(=O)C=C[C@]4(C)[C@H]3[C@@H](O)C[C@@]21C` [Example 17, N-(N-(N-(N-(N-(Phthaloyl)-glycyl)-L-alanyl)-L-alanyl)-L-prolyl) -L-valine [11β,21-dihydroxy-3,20-dioxo-6α-methyl-17-propionyloxy-pregna-1,4-dien-21-yl] ester] (Phthalimidoacetyl-AAPV-{Methylprednisolone(17-OCOEt)}) was tested, and the “Relative Hydrolysis Rate [%]” value (Esterases of Rat Skin) was 49%.
For `CCC(=O)O[C@]1(C(=O)COC(=O)[C@@H](NC(=O)[C@@H]2CCCN2C(=O)[C@H](C)NC(=O)[C@H](C)NC(=O)C(C)(C)NC(=O)OCC2c3ccccc3-c3ccccc32)C(C)C)CC[C@H]2[C@@H]3C[C@H](C)C4=CC(=O)C=C[C@]4(C)[C@H]3[C@@H](O)C[C@@]21C` [Example 18, N-(N-(N-(N-(N-((9H-Fluoren-9-ylmethoxy)carbonyl)-2-amino-2-methyl-propionyl)-L-alanyl)-L-alanyl)-L-prolyl)-L-valine [11β,21-dihydroxy-3,20-dioxo-6α-methyl-17-propionyloxy-pregna-1,4-dien-21-yl] ester] (Fmoc-[Aib]AAPV-{Methylprednisolone(17-OCOEt)}), the “Relative Hydrolysis Rate [%]” value (Leukocyte Elastase) was 130%.
`CC(C)[C@H](NC(=O)[C@@H]1CCCN1C(=O)[C@H](C)NC(=O)[C@H](C)NC(=O)OC(C)(C)C)C(=O)OCC(=O)[C@H]1[C@H](C)C[C@H]2[C@@H]3C[C@H](F)C4=CC(=O)C=C[C@]4(C)[C@H]3[C@@H](O)C[C@@]21C` [Example 32, N-(N-(N-(N-((1,1-Dimethyl)-ethoxycarbonyl)-L-alanyl)-L-alanyl)-L -prolyl)-L-valine [6α-fluoro-11β,21-dihydroxy-16α-methyl-3,20dioxo-pregna-1,4-dien-21-yl] ester] (Boc-AAPV-X2) was tested, and the “Relative Hydrolysis Rate [%]” value (Leukocyte Elastase) was 380%.
With `CCCCC(=O)O[C@]1(C(=O)COC(=O)[C@@H](NC(=O)[C@@H]2CCCN2C(=O)[C@H](C)NC(=O)[C@H](C)NC(=O)OC(C)(C)C)C(C)C)[C@@H](C)C[C@H]2[C@@H]3CCC4=CC(=O)C=C[C@]4(C)[C@@]3(F)[C@@H](O)C[C@@]21C` [Example 38, N-(N-(N-(N-((1,1-Dimethyl)ethoxycarbonyl)-L-alanyl)-L-alanyl)-L -prolyl)-L-valine [9α-fluoro-11β,21-dihydroxy-16β-methyl-3,20-dioxo-17-valeroyloxy-pregna-1,4-dien-21-yl] ester] the “Relative Hydrolysis Rate [%]” value (Esterases of Rat Skin) was 0%.
In the case of `COC(=O)CCC(=O)N[C@@H](C)C(=O)N[C@@H](C)C(=O)N1CCC[C@H]1C(=O)N[C@H](C(=O)CCl)C(C)C` [MeO-succinyl-Ala-Ala-Pro-Val-chloromethylketone, reference compound] (MeOSuc-AAPV-CH2Cl), the “Inhibition of the cleavage of the prodrugs” value (Leukocyte Elastase; addition of the specific elastase inhibitor to granulocyte lysate) is reported as 90%.
